Molecules are shown by their SMILES.

The record followed here is US20240401044A1, “EXPLOITING IL33 SECRETION AS A THERAPEUTIC TARGET IN CANCER” (ROSWELL PARK CANCER INSTITUTE CORPORATION HEALTH RESEARCH, …, priority 2021, published 2024).

The test system of experiment [1] is orthotopically transplanted PDAC tumors. The experiment is described as follows: Antifungal (fungal depletion) treatment of mice with orthotopically transplanted PDAC tumors: tumor burden and survival. It counts as in vivo, C57BL/6 mice. As for the experimental part:
(§1) Followed by 3 weeks of amphotericin (0.5ug/ml) treatment in drinking water. After 3 weeks, PDAC cells were orthotopically transplanted and tumor progression studies were performed after 28-35 days. […] Red circles define the tumor boundaries. […] Followed by 3 weeks of amphotericin (0.5ug/ml) treatment in drinking water. After 3 weeks fungus (Alternaria alternata and Malassazia globose, 10^8 CFU/ml) was transplanted in mice. After 7 days of fungus transplantation, PDAC cells were orthotopically transplanted and tumor progression studies were performed after 28-35 days. […] Also, shown are the 18S rRNA sequencing in stool samples. Positive control-Alternaria is a sample of pure Alternaria culture. […] Scale bar 100 μm, unless indicated otherwise. Data are combined from three independent experiments and are presented as mean ±SEM, P values were calculated using Student t-test. ns, no significance.
For all experiments, C57BL/6J (Stock 000664) mice, aged 4-6 weeks were obtained from Jackson Laboratory unless otherwise mentioned. For orthotopic pancreas transplantation, mice were anaesthetized using isoflurane. A 2×2-mm portion of the left abdomen was shaved to facilitate transplantation. An incision was made in the left abdomen and the pancreas was gently exposed along with the spleen. Luciferase-expressing cells were slowly injected into the tail of the pancreas using a Hamilton syringe. Twenty microliters of cells (5×10^5) mixed with 20 μl Matrigel were injected. […]
Live in vivo imaging was performed at the Animal Imaging Facility at Roswell Park Comprehensive Cancer Center. […] Temperature and respiration were regulated using an MR-compatible small animal monitoring system (Model 1250, SAII, Stony Brook, NY.) Following scout scans, tumor burden was determined using multislice, fast spin echo scans in the axial and coronal planes. […] Tumor volumes were calculated by manual segmentation and voxel summation using commercially available, medical image processing software (Analyze 10.0, AnalyzeDirect, Overland Park, KS). […]

Experiment [2] deals with ILC2 and TH2 cells in PDAC tumors. The experiment is described as follows: Flow cytometry of tumor infiltrating type 2 immune cells after antifungal treatment. It is filed as in vivo, C57BL/6 mice. The conditions noted are these: oral amphotericin B. Here is the method: as §1
For gastrointestinal fungal depletion, C57BL/6 mice were treated with 200 μg amphotericin B per day by oral gavage for five consecutive days, followed by 0.5 μg/ml amphotericin B treatment in drinking water for 21 days. Control groups were gavaged with 200 μl PBS for 5 consecutive days. After completion of antifungal treatment, species specific fungal repopulation was done with Alternaria alternata (ATCC 36376) and Malassezia globosa (MYA-4889). Fungi were administered (1×10^8 CFU/ml) by oral gavage. […]
For orientation: A flow cytometer gives signals particle by particle.

Experiment [3] deals with IL33. The experiment is described as follows: IHC and IF of IL33 in fungal-depleted PDAC tumors. It counts as in vivo, mouse. As to conditions: fungal-depleted tumors after amphotericin B course (FIG. 9H). As for the experimental part: To further test the role of fungi in IL33 secretion and recruitment of ILC2 and TH2 cells in the PDAC TME, we evaluated the effect of Alternaria and Malassezia administered by gavage to PDAC tumor-bearing mice (FIG. 9G). First, fungi resident in the mice were depleted by a course of amphotericin B (i.e., 5 doses of amphotericin B, 200 μg/day by oral gavage), followed by a maintenance dose of 0.5 μg/ml in the drinking water for […]. Following depletion of fungi, we administered either Malassezia globosa or Alternaria alternata (10^8 fungal spores per mouse) by oral gavage into the tumor-bearing mice. At 28 days post-fungal treatment, the tumors were harvested for analyses. […] Intratumoral fungal depletion and repopulation were confirmed by fungal FISH analysis (FIG. 9H). Further, 18S rRNA sequencing confirmed increased presence of Alternaria and Malassezia sp. in the tumor and stool of the mouse receiving fungal transplantation (FIG. 9I, FIG. 10D-F). […] Similarly, Malassezia globosa or Alternaria alternata administration augmented the infiltration of ILC2 (FIG. 9K) and TH2 (FIG. 10G) cell populations within the TME. […]
Harvested tissues were immediately fixed in 10% formalin overnight and embedded in paraffin. […] Immunofluorescence slides were imaged with an Leica confocal Microscope and quantified with ImageJ. […]

For experiment [4], the system named is IL33 expression. Nature of the experiment: Western blot of IL33 expression in PDAC cell lines treated with MEK and PI3K/AKT inhibitors. The conditions noted are these: cell lines derived from KPC tumor model of PDAC; inhibitor treatment for 24 hrs. It is filed as cell-based, mouse. As for the experimental part: Results are shown as mean ±SEM. P values were calculated using Student t test. Chi-square test and spearman's correlation analysis was done for human PDAC TMA for statistical significance.
The above in silico findings were further validated by western blot analysis showing a complete loss of IL33 expression upon abolishing Kras* signaling (FIG. 3F-G, FIG. 4A-B). We further validated this finding using cell lines derived from KPC tumor model of PDAC (FIG. 1A).
Primary mouse cell lines were established in the laboratory (PJ-B6-4291, PJ-B6-4298) or gift from Dr. Ronald DePinho (AK-B6, AK14838, AK192, HY19636, HY15559) as described previously and were routinely cultured in RPMI 1640 (Invitrogen) 10% FBS (Invitrogen), 100 U/ml penicillin and 100 U/ml streptomycin. For inducible Kras derived cell lines, 1 μg/ml of doxycycline was directly added to the media. The cell lines were mycoplasma free, based on tests done monthly in the laboratory using Lonza's MycoAlert Mycoplasma Detection Kit assays with confirmatory tests by PCR-based assays.
Medium was removed and the cells were washed twice in ice-cold phosphate-buffered saline (PBS), scraped and collected as pellets after centrifugation at 1700 g for 5 min. The pelleted cells were incubated in radio immune precipitation assay (RIPA) buffer with proteinase and phosphatase inhibitors for 15 min. Lysates were then collected and centrifuged at 12000 rpm for 15 min at 4° C. Protein concentrations were measured using the DC Protein Assay Kit (Biorad, Cat. No. 5000111). SDS-PAGE and immunoblotting were performed as described previously in pre-cast bis-Tris 4-20% gradient gels (Invitrogen). The following antibodies were used: IL33 (R & D system AF3626); pAKT-S473 (CST 9271); pERK-p44/42 (CST 4370) and […] (Sigma-Aldrich, A2228).
Background: In western blotting, separated proteins are transferred to a membrane and probed.

On to `C[C@@H]1[C@H](O)[C@@H](C)/C=C/C=C/C=C/C=C/C=C/C=C/C=C/[C@H](O[C@@H]2O[C@H](C)[C@@H](O)[C@H](N)[C@@H]2O)C[C@@H]2O[C@](O)(C[C@@H](O)C[C@@H](O)[C@H](O)CC[C@@H](O)C[C@@H](O)CC(=O)O[C@H]1C)C[C@H](O)[C@H]2C(=O)O` [amphotericin B], for which the “tumor burden (wet weight of PDAC tumors)” value in experiment [1] (fungal depletion/repopulation experiment, 5 doses 200 μg/day by oral gavage, then 0.5 μg/ml in drinking water (FIG. 9J)) was “significantly decreased tumor burden”. Besides, the tumor burden entry in experiment [1] (oral amphotericin B, orthotopic PDAC tumor-bearing mice (FIG. 9B-C, 10A)) is reported as “decreased tumor burden”. Moreover, the survival entry in experiment [1] (oral amphotericin B, orthotopic PDAC tumor-bearing mice (FIG. 9D)) is recorded as “increased survival”. In addition, in experiment [2] (relative to total CD45 positive cells (FIG. 9E)), the “tumor infiltrating ILC2” value is “reduced tumor infiltrating ILC2”. Besides, the “tumor infiltrating TH2 cells” value in experiment [2] (relative to total CD45 positive cells (FIG. 9F)) was “reduced”. Further, the “IL33 localisation in PDAC tumors (IHC and IF)” value in experiment [3] is “IL33 signal restricted predominantly to the nucleus of cancer cells”.
As to `Nc1cc(C(F)(F)F)c(-c2cc(N3CCOCC3)nc(N3CCOCC3)n2)cn1` [Buparlisib], the “IL33 expression (western blot)” value in experiment [4] is “did not lead to a reduction in IL33 expression”.
For `CCn1c(-c2nonc2N)nc2c(C#CC(C)(C)O)ncc(OCC3CCCNC3)c21` (stereo not drawn) [GSK-690696], the “IL33 expression (western blot)” value in experiment [4] is listed as “did not lead to a reduction in IL33 expression”.
Turning to `O=C(NOCC1CC1)c1ccc(F)c(F)c1Nc1ccc(I)cc1Cl` [CI-1040], the “IL33 expression (western blot)” value in experiment [4] was “complete inhibition of IL33 expression”.
